Several values for one entry are separate records, joined by “and”; a condition that tells them apart may be missing. Equal values may be shown once.
Target: RIPK1 (Homo sapiens (Human), UniProt Q13546)
Assay: ADP-Glo Kinase Assay
Format: biochemical
Conditions: 5 nM RIPK1 protein, 50 μM ATP, 6 hr reaction, average value across multiple runs
Method: In order to measure RIPK1 activity the ADP-Glo kinase assay (Promega, Catalog #V7002) was used to measure the conversion of ATP to ADP. This enzymatic assay was performed in a 384-well white, Optiplate (Perkin Elmer, Catalog #6007299) with assay buffer consisting of 50 mM HEPES pH 7.5 (Gibco, Catalog #15630-080), 50 mM NaCl (Teknova, Catalog #S0252), 30 mM MgCl2 (Ambion, Catalog #AM9530G), 1 mM DTT (Santa Cruz Biotechnology, Catalog #sc-29089), 0.05% BSA (Sigma, Catalog #A3059-50G) and 0.02% CHAPS (Sigma, Catalog #C5070-5G). Stock solutions of the test compounds were prepared in 100% DMSO (Sigma, Catalog #D2650) and serially diluted 1:3 using 100% DMSO. Compounds were additionally diluted 1:40 in assay buffer, and 2 μL/well were transferred to the assay plate. 4 μL/well (final concentration of 5 nM) of RIPK1 protein (SignalChem, Catalog #R07-11G-05) diluted in assay buffer and added to the assay plate followed by a 10 minute preincutation at room temperature. 4 μL/well of ATP (Promega, Catalog #V7002) (final concentration of 50 μM) diluted in assay buffer were then added to the assay plate followed by a 6 hr reaction time. Final concentrations of RIPK1 and ATP refer to a 10 μL volume. Luminescence was measured using a BioTek Synergy™ NEO plate reader. IC50 values were calculated using a four-parameter logistic curve fit using Genedata Screener software. Results are shown below in Table 4, where the average value across multiple runs is given.

Sequence of RIPK1 (Q13546 1-327): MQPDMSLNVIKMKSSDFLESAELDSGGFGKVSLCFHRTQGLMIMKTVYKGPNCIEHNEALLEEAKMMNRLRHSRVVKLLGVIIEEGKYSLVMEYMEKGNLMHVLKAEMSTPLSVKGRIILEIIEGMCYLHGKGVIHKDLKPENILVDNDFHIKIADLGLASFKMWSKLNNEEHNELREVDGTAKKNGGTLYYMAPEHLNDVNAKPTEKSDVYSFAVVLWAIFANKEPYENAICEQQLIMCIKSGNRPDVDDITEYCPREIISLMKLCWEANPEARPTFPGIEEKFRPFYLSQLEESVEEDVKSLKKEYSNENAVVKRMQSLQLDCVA

| IC50 | Compound |
| --- | --- |
| 1.78 µM | COCc1cc(=O)c(C(=O)Nc2cccc(Cl)c2F)nn1-c1ccccc1 [Example 35, N-(3-chloro-2-fluorophenyl)-6-(methoxymethyl)-4-oxo-1-phenyl-1,4-dihydropyridazine-3-carboxamide] |
| 0.08 µM | Cc1cc(=O)c(C(=O)Nc2cccc(Cl)c2)nn1-c1ccccc1 [Example 4, N-(3-chlorophenyl)-6-methyl-4-oxo-1-phenyl-1,4-dihydropyridazine-3-carboxamide] |
| 3.91 µM | Cc1cc(=O)c(C(=O)Nc2c(C(C)C)ncnc2C(C)C)nn1-c1ccccc1 [Example 34, N-(4,6-diisopropylpyrimidin-5-yl)-6-methyl-4-oxo-1-phenyl-1,4-dihydropyridazine-3-carboxamide] |
| 3.57 µM | Cc1cc(=O)c(C(=O)NC(c2ccccc2)C2CC2)nn1-c1ccccc1 (centres unmarked) [Example 98, N-(cyclopropyl(phenyl)methyl)-6-methyl-4-oxo-1-phenyl-1,4-dihydropyridazine-3-carboxamide] |
| 6.35 µM | Cc1ccnc(NC(=O)c2nn(-c3ccccc3F)c(C)cc2=O)c1 [Example 94, 1-(2-fluorophenyl)-6-methyl-N-(4-methylpyridin-2-yl)-4-oxo-1,4-dihydropyridazine-3-carboxamide] |
| 33.3 µM | COCc1cc(=O)c(C(=O)Nc2cccc(Cl)c2F)nn1C [Example 88, N-(3-chloro-2-fluorophenyl)-6-(methoxymethyl)-1-methyl-4-oxo-1,4-dihydropyridazine-3-carboxamide] |
| 1.19 µM | Cc1cc(=O)c(C(=O)Nc2c(C(C)C)cccc2C(C)C)nn1-c1ccccc1 [Example 117, N-(2,6-diisopropylphenyl)-6-methyl-4-oxo-1-phenyl-1,4-dihydropyridazine-3-carboxamide] |
| 0.037 µM | Cc1ccc(-n2nc(C(=O)NC3CCc4ccccc4NC3=O)c(=O)cc2C)cc1F (centres unmarked) [Example 52, 1-(3-fluoro-4-methylphenyl)-6-methyl-4-oxo-N-(2-oxo-2,3,4,5-tetrahydro-1H-benzo[b]azepin-3-yl)-1,4-dihydro-pyridazine-3-carboxamide] |
| 1.78 µM | Cc1cc(=O)c(C(=O)Nc2cc(Cl)cc(C#N)c2)nn1-c1ccccc1 [Example 5, N-(3-chloro-5-cyanophenyl)-6-methyl-4-oxo-1-phenyl-1,4-dihydropyridazine-3-carboxamide] |
| 2.92 µM and 3.47 µM | Cc1cc(=O)c(C(=O)Nc2ccncc2)nn1-c1ccccc1 [Example 115, 6-methyl-4-oxo-1-phenyl-N-(pyridin-4-yl)-1,4-dihydropyridazine-3-carboxamide] |
| 1.78 µM | Cc1cc(=O)c(C(=O)Nc2ccccn2)nn1-c1ccccc1 [Example 106, 6-methyl-4-oxo-1-phenyl-N-(pyridin-2-yl)-1,4-dihydropyridazine-3-carboxamide] |
| 4.71 µM | Cc1cc(=O)c(C(=O)Nc2cc(Cl)c3cn[nH]c3c2)nn1-c1ccccc1 [Example 18, N-(4-chloro-1H-indazol-6-yl)-6-methyl-4-oxo-1-phenyl-1,4-dihydropyridazine-3-carboxamide] |
| 0.823 µM | Cc1cc(=O)c(C(=O)Nc2cccc(Cl)c2F)nn1Cc1ccccc1 [Example 2, 1-Benzyl-N-(3-chloro-2-fluorophenyl)-6-methyl-4-oxo-1,4-dihydropyridazine-3-carboxamide] |
| 3.94 µM | Cc1cccc(NC(=O)c2nn(-c3ccccc3F)c(C)cc2=O)n1 [Example 95, 1-(2-fluorophenyl)-6-methyl-N-(6-methylpyridin-2-yl)-4-oxo-1,4-dihydropyridazine-3-carboxamide] |
| 10.2 µM | Cc1cc(=O)c(C(=O)NCc2cc(F)cc(F)c2)nn1-c1ccccc1 [Example 3, N-(3,5-difluorobenzyl)-6-methyl-4-oxo-1-phenyl-1,4-dihydropyridazine-3-carboxamide] |
| 0.519 µM | Cc1cnc2ccccc2c1NC(=O)c1nn(-c2ccccc2)c(C)cc1=O [Example 31, 6-methyl-N-(3-methylquinolin-4-yl)-4-oxo-1-phenyl-1,4-dihydropyridazine-3-carboxamide] |
| 12.6 µM | Cc1n[nH]c(C)c1NC(=O)c1nn(-c2ccccc2)c(C)cc1=O [Example 19, N-(3,5-dimethyl-1H-pyrazol-4-yl)-6-methyl-4-oxo-1-phenyl-1,4-dihydropyridazine-3-carboxamide] |
| 0.414 µM | Cc1cc(=O)c(C(=O)Nc2cc(F)cc(F)c2)nn1-c1ccccc1 [Example 92, N-(3,5-difluorophenyl)-6-methyl-4-oxo-1-phenyl-1,4-dihydropyridazine-3-carboxamide] |
| 28.7 µM | Cc1cc(=O)c(C(=O)Nc2ccccc2F)nn1-c1ccccc1 [Example 108, N-(2-fluorophenyl)-6-methyl-4-oxo-1-phenyl-1,4-dihydropyridazine-3-carboxamide] |
| 4.64 µM | CCn1c(NC(=O)c2nn(-c3ccccc3)c(C)cc2=O)nc2ccccc21 [Example 101, N-(1-ethyl-1H-benzo[d]imidazol-2-yl)-6-methyl-4-oxo-1-phenyl-1,4-dihydropyridazine-3-carboxamide] |
| 1.59 µM | C#CCNC(=O)c1nn(-c2ccccc2)c(C)cc1=O [Example 110, 6-methyl-4-oxo-1-phenyl-N-(prop-2-yn-1-yl)-1,4-dihydropyridazine-3-carboxamide] |
| 7.92 µM | Cc1cc(=O)c(C(=O)Nc2ccc3nn[nH]c3c2)nn1-c1ccccc1 [Example 13, N-(1H-benzo[d][1,2,3]triazol-6-yl)-6-methyl-4-oxo-1-phenyl-1,4-dihydropyridazine-3-carboxamide] |
| 15.5 µM | Cc1cc(=O)c(C(=O)Nc2ccccc2C2CC2)nn1-c1ccccc1 [Example 30, N-(2-cyclopropylphenyl)-6-methyl-4-oxo-1-phenyl-1,4-dihydropyridazine-3-carboxamide] |
| 18.6 µM | Cc1cc(=O)c(C(=O)Nc2c(C(C)C)nn(C)c2C(C)C)nn1-c1ccccc1 [Example 89, N-(3,5-diisopropyl-1-methyl-1H-pyrazol-4-yl)-6-methyl-4-oxo-1-phenyl-1,4-dihydropyridazine-3-carboxamide] |
| 36.9 µM | Cc1noc(C(C)NC(=O)c2nn(-c3ccccc3)c(C)cc2=O)n1 (centres unmarked) [Example 105, 6-methyl-N-(1-(3-methyl-1,2,4-oxadiazol-5-yl)ethyl)-4-oxo-1-phenyl-1,4-dihydropyridazine-3-carboxamide] |

Tested on: human monocytic cell line U937
Assay: Human U937 Cellular Necroptosis Assay
Format: cell-based
Conditions: U-937; U937 cells stimulated with 25 ng/mL human TNFalpha and 25 μM z-VAD-FMK, 22 hr, viability by Cell Titer-Glo 2.0; average value across multiple runs; read-out: hU937 IC50
Method: Human U937 Cellular Necroptosis Assay
The human monocytic cell line U937 (CRL-1593.2) was purchased from ATCC. The cells were routinely maintained in RPMI-1640 Medium (Gibco, Catalog #11875-093) supplemented with 10% heat inactivated fetal bovine serum (Gibco, Catalog #16140-071), 100 units/mL penicillin and 100 μg/mL streptomycin (Gibco, Catalog #15140-122), in a humidified incubator (37° C., 5% CO2). For the assay, cells were resuspended in RPMI-1640 phenol red free Media (Gibco, Catalog #11835-030) supplemented with 10% fetal bovine serum (Sigma, Catalog #F2442), 100 units/mL penicillin and 100 ug/mL streptomycin. Cells were stimulated with 25 ng/mL human TNFalpha (Cell Sciences, Catalog #CSI15659B) and 25 μM z-VAD-FMK (R&D Systems, Catalog #FMK001) followed by seeding 5000 cells per well in a volume of 40 μL to a white, CulturPlate-384 (Perkin Elmer, Catalog #6007680). Stock solutions of the test compounds were prepared in 100% DMSO (Sigma, Catalog #D2650) and serially diluted 1:3 using 100% DMSO. Compounds were additionally diluted 1:40 in assay medium, and 10 μL/well was transferred to the plate. Following the compound addition the plate was incubated at 37° C. and 5% CO2 for 22 hr. After 22 hr, viability was assessed with the addition of 20 μL of Cell Titer-Glo 2.0 (Promega, Catalog #G9243). The tissue culture plate was shaken on an orbital shaker at 300 RPM for 15 minutes at room temperature in the dark. Luminescence was measured using a PerkinElmer Envision™ plate reader. IC50 values were calculated using a four-parameter logistic curve fit using Genedata Screener software. Results are shown below in Table 5, where the average value across multiple runs is given.

| Compound | IC50 |
| --- | --- |
| Cc1cc(=O)c(C(=O)N[C@@H]2C(=O)N(C)c3ncccc3O[C@@H]2C)nn1-c1ccccc1 [Example 78, N-((2R,3S)-2,5-dimethyl-4-oxo-2,3,4,5-tetrahydropyrido[3,2-b]-[1,4]oxazepin-3-yl)-6-methyl-4-oxo-1-phenyl-1,4-dihydropyridazine-3-carboxamide] | 0.15 µM |
| CCN1C(=O)[C@@H](NC(=O)c2nn(-c3ccccc3)c(C)cc2=O)COc2cccnc21 [Example 76, (S)-N-(5-ethyl-4-oxo-2,3,4,5-tetrahydro-pyrido[3,2-b][1,4]oxazepin-3-yl)-6-methyl-4-oxo-1-phenyl-1,4-dihydro-pyridazine-3-carboxamide] | 5.59 µM |
| COc1cc2c(cn1)N(C)C(=O)C(NC(=O)c1nn(-c3ccccc3)c(C)cc1=O)CC2 (centres unmarked) [Example 81, N-(7-methoxy-1-methyl-2-oxo-2,3,4,5-tetrahydro-1H-pyrido[3,4-b]azepin-3-yl)-6-methyl-4-oxo-1-phenyl-1,4-dihydropyridazine-3-carboxamide] | 0.788 µM |
| Cc1cc(=O)c(C(=O)N[C@H]2COc3cccnc3NC2=O)nn1-c1ccccc1 [Example 63, (S)-6-methyl-4-oxo-N-(4-oxo-2,3,4,5-tetrahydropyrido[3,2-b][1,4]oxazepin-3-yl)-1-phenyl-1,4-dihydropyridazine-3-carboxamide] | 0.479 µM |

From patent US11690850B2, “Inhibitors of receptor interacting protein kinase I for the treatment of disease” (Board of Regents, The University of Texas System, priority 2019, dated 2023)
